These results are taken from patent US20160339074A1, “PHARMACEUTICAL COMPOSITION OF SELECTIVE HCV NS3/4A INHIBITORS” (MERCK SHARP & DOHME CORP., priority 2014, published 2016).

What is called solubility is the dissolved amount per volume that the medium holds. One may read the logD as the decadic logarithm of the distribution of all forms, ionised or not, between an organic phase and buffer at a given pH. A low value points to a more hydrophilic compound.

The nature of one series: Aqueous solubility. The format is physicochemical. As to conditions: aqueous medium (not further specified).
The next series can be described thus: log D of Compound 1. Type of series: physicochemical. Conditions: pH 7, pH=7.
For series [1] the following is noted: thermodynamic from solid.
Series [2] can be described thus: TM/TG ratio (crystallization tendency). The format is physicochemical. As to conditions: based on the most stable crystalline phase known.

Converted amounts (≈) assume the structure as drawn. Where two headings read alike, the source gives them in different places.

As to `C=C[C@@H]1C[C@]1(NC(=O)[C@@H]1C[C@@H]2CN1C(=O)[C@H](C(C)(C)C)NC(=O)O[C@@H]1C[C@H]1CCCCCc1nc3ccc(OC)cc3nc1O2)C(=O)NS(=O)(=O)C1CC1` [Compound 1, (1aR,5S,8S,10R,22aR)-5-tert-butyl-N-{(1R,2S)-1-[(cyclopropylsulfonyl)carbamoyl]-2-ethenylcyclopropyl}-14-methoxy-3,6-dioxo-1,1a,3,4,5,6,9,10,18,19,20,21,22,22a-tetradecahydro-8H-7,10-methanocyclopropa[18,19][1,10,3,6]dioxadiazacyclononadecino[11,12-b]quinoxaline-8-carboxamide], in “Aqueous solubility”, the solubility is less than 50 µg/mL. The same compound displayed a logD in “log D of Compound 1” of 3. In addition, the solubility at 2 h in series [1] (simulated fasted state intestinal fluid, fassif) is 50 µg/mL (≈ 65.2 µM); in series [1] (simulated gastric fluid) it was less than 3 µg/mL. Besides, the TM/TG ratio in series [2] worked out at 1.12.
